Measurements: patent publication US20090186838A1, “Amphotericin Derivatives” (Eidgenössische Technische Hochschule Zürich, priority 2006, published 2009)
In brackets after ≈: the same amount, converted by molar mass. Like-named read-outs stand apart in the source and are kept apart here.

System: Saccharomyces cerevisiae wild type BY4741
Experiment: MIC determination in Saccharomyces cerevisiae wild type BY4741
Type: cell-based
Experimental: In Vitro Antifungal Activity. MIC values for various strains were determined in accordance with the standard protocol from the National Committee of Clinical Laboratory Standards but using YEPD liquid medium instead of RPMI-1640 medium (National Committee of Clinical Laboratory Standards (Reference Method for Broth Dilution Antifungal Susceptibility Testing of Yeast, M27-A2, Approved Standard-Second Edition, Volume 22, Number 15, 1995). AmB was used as a reference. The strains were cultivated overnight in 5 mL YEPD liquid medium at 30 to 37° C. (30° C. for the strain BY4741; 37° C. for the strain DSY1764) with constant shaking. The saturated cultures were diluted to an ODB600 of 0.1 (3×10P^7 cells/mL). Using 24 wells plate, each well was prepared by adding 1% (12 μL) of DMSO solution of the tested polyene macrolide with 1% (12 μL) yeast cells solution and completed with YEPD (1.176 mL). The plates were sealed with Parafilm and then incubated for 18 to 36 hours at 30 to 37° C. (18 hours at 30° C. for the strain BY4741; 36 hours at 37° C. for the strain DSY1764). The optical density was read at 600 nm using 1.5 mL cuvettes. The MIC value was defined as the drug concentration needed to inhibit growth, less than 5% compared to a drug-free culture.
MIC values of various polyene macrolides of the invention in Saccharomyces cerevisiae wild type BY4741, a derivative of S288C, (with AmB as a reference) were determined as described hereinabove.
Based on the remarkable performance observed with the Diamine-AmB conjugate similar modifications of the aminosugar moiety were made on other polyene macrolides, such as for example Nystatin (1b) and Pimaricin (1c). The antifungal activity of these nystatin and pimaricin conjugates bearing two aminopropyl side chains was measured using Saccharomyces cerevisiae wild type BY4741.

[1] = Saccharomyces cerevisiae wild type BY4741, YEPD liquid medium, 18 hours at 30° C., read-out: MIC
[2] = Table 5, Saccharomyces cerevisiae wild type BY4741, read-out: MIC
[3] = Saccharomyces cerevisiae wild type BY4741

SMILES | MIC (Saccharomyces cerevisiae, 18 h) | MIC [2] | further results
C[C@@H]1[C@H](O)[C@@H](C)/C=C/C=C/C=C/C=C/C=C/C=C/C=C/[C@H](O[C@@H]2O[C@H](C)[C@@H](O)[C@H](N3CCN(C(=O)CCCCCNC(=O)C(N)CCCCN)CC3)[C@@H]2O)CC2O[C@](O)(C[C@@H](O)C[C@@H](O)[C@H](O)CC[C@@H](O)C[C@@H](O)CC(=O)O[C@H]1C)C[C@H](O)[C@H]2C(=O)O (stereo partly drawn) [compound 7, 2,6-Diamino-N-[6-oxo-6-(piperazin-1-yl)-hexyl]-hexanamide-AmB] |  |  | MIC [1]: 0.1 µM (≈ 0.123 µg/mL)
C[C@@H]1[C@H](O)[C@@H](C)/C=C/C=C/C=C/C=C/C=C/C=C/C=C/[C@H](O[C@@H]2O[C@H](C)[C@@H](O)[C@H](N(CCNC(=N)N)CCNC(=N)N)[C@@H]2O)CC2O[C@](O)(C[C@@H](O)C[C@@H](O)[C@H](O)CC[C@@H](O)C[C@@H](O)CC(=O)O[C@H]1C)C[C@H](O)[C@H]2C(=O)O [compound 6, N,N-Di-(2-ethylguanidine)-AmB] | 0.1 µM (≈ 0.109 µg/mL) |  | 
C[C@@H]1C/C=C/C=C/C=C/C=C/[C@H](O[C@@H]2O[C@H](C)[C@@H](O)[C@H](N)[C@@H]2O)C[C@@H]2O[C@](O)(C[C@@H](O)C[C@H]3O[C@@H]3/C=C/C(=O)O1)C[C@H](O)[C@H]2C(=O)O [1c (Pimaricin), Pimaricin, reference compound] |  | 4 µM (≈ 2.66 µg/mL) | 
C[C@@H]1C/C=C/C=C/C=C/C=C/[C@H](O[C@@H]2O[C@H](C)[C@@H](O)[C@H](N(CCCN)CCCN)[C@@H]2O)C[C@@H]2O[C@](O)(C[C@@H](O)C[C@H]3O[C@@H]3/C=C/C(=O)O1)C[C@H](O)[C@H]2C(=O)O [compound 18, N,N-Di-(3-aminopropyl)-Pimaricin] |  | 0.3 µM (≈ 0.234 µg/mL) | antifungal activity compared with the native compounds 1b and 1c [3]: significantly more active
C[C@@H]1[C@H](O)[C@@H](C)/C=C/C=C/C=C/C=C/C=C/C=C/C=C/[C@H](OC2O[C@H](C)[C@@H](O)[C@H](N(CCCO)CCCO)[C@@H]2O)CC2O[C@](O)(C[C@@H](O)C[C@@H](O)[C@H](O)CC[C@@H](O)C[C@@H](O)CC(=O)O[C@H]1C)C[C@H](O)[C@H]2C(=O)O (stereo partly drawn) [compound 4, N,N-Di-(3-hydroxypropyl)-AmB] | 0.5 µM (≈ 0.52 µg/mL) |  | 
C[C@@H]1[C@H](O)[C@@H](C)/C=C/C=C/C=C/C=C/C=C/C=C/C=C/[C@H](OC2O[C@H](C)[C@@H](O)[C@H](N(CCN)CCN)[C@@H]2O)CC2O[C@](O)(C[C@@H](O)C[C@@H](O)[C@H](O)CC[C@@H](O)C[C@@H](O)CC(=O)O[C@H]1C)C[C@H](O)[C@H]2C(=O)O (stereo partly drawn) [compound 2, N,N-Di-(2-aminoethyl)-AmB] | 0.25 µM (≈ 0.253 µg/mL) |  | 
C[C@@H]1[C@H](O)[C@@H](C)/C=C/C=C/C=C/C=C/C=C/C=C/C=C/[C@H](O[C@@H]2O[C@H](C)[C@@H](O)[C@H](N3CCN(C(=O)CCCCCNC(=O)C(N)CCCCNC(=N)N)CC3)[C@@H]2O)CC2O[C@](O)(C[C@@H](O)C[C@@H](O)[C@H](O)CC[C@@H](O)C[C@@H](O)CC(=O)O[C@H]1C)C[C@H](O)[C@H]2C(=O)O (stereo partly drawn) [compound 8, 2-Amino-6-guanidine-N-[6-oxo-6-(piperazin-1-yl)-hexyl]-hexanamide-AmB] |  |  | MIC [1]: 0.1 µM (≈ 0.128 µg/mL)
C[C@@H]1[C@H](O)[C@@H](C)/C=C/C=C/CC/C=C/C=C/C=C/C=C/[C@H](O[C@@H]2O[C@H](C)[C@@H](O)[C@H](N(CCCN)CCCN)[C@@H]2O)CC2O[C@](O)(C[C@@H](O)[C@H](O)CC[C@@H](O)C[C@@H](O)C[C@@H](O)CC(=O)O[C@H]1C)C[C@H](O)[C@H]2C(=O)O [compound 17, N,N-Di-(3-aminopropyl)-Nystatin] |  |  | MIC (Saccharomyces cerevisiae): 0.05 µM (≈ 0.052 µg/mL); antifungal activity compared with the native compounds 1b and 1c [3]: significantly more active
C[C@@H]1[C@H](O)[C@@H](C)/C=C/C=C/C=C/C=C/C=C/C=C/C=C/[C@H](O[C@@H]2O[C@H](C)[C@@H](O)[C@H](N(CC(N)CCCCN)CC(N)CCCCN)[C@@H]2O)CC2O[C@](O)(C[C@@H](O)C[C@@H](O)[C@H](O)CC[C@@H](O)C[C@@H](O)CC(=O)O[C@H]1C)C[C@H](O)[C@H]2C(=O)O (stereo partly drawn) [compound 5, N,N-Di-(2,6-diaminohexyl)-AmB] | 0.08 µM (≈ 0.0922 µg/mL) |  | 
C[C@@H]1[C@H](O)[C@@H](C)/C=C/C=C/CC/C=C/C=C/C=C/C=C/C(O[C@H]2O[C@H](C)[C@@H](O)[C@H](N)[C@@H]2O)CC2O[C@](O)(CC(O)C(O)CCC(O)CC(O)CC(O)CC(=O)O[C@H]1C)CC(O)C2C(=O)O (stereo partly drawn) [1b (Nystatin), Nystatin, reference compound] |  | 3.0 µM (≈ 2.78 µg/mL) | 
